Results on three molecules are retold here after patent US20260250629A1, “STEM CELLS BASED THREE-DIMENSIONAL EMBRYO MODEL” (CAMBRIDGE ENTERPRISE LIMITED, priority 2023, published 2026).

Holding throughout (assay type): cell-based, human
The test system of assay [1] is hPGCLCs. Kind of assay: hPGCLC specification in hEOs, NANOS3-tdTomato reporter. On the procedure: (§1) Inventors used W15-NANOS3-tdTomato and RUES2-GLR hES cell lines in this study. All hES cells were cultured in Essential 8™ (E8) medium (Life Technologies, A1517001) on freshly prepared Vitronectin (Fisher Scientific, A31804) coated 6-well plates in humidified chambers at 37° C. and 5% CO2. hES cells were passaged every 3-4 days (once they reached ~70% confluency) using 0.5 mM EDTA (ThermoFisher Scientific, AM9260G) in homemade phosphate buffer saline (1×PBS). The transient state of cells was induced, as described previously, with slight modifications^19. In brief, hES cell colonies (70% confluent) were dissociated into single cells using 0.25% Trypsin-EDTA (Life Technologies, 25200072), seeded (600,000 cells/well) into freshly prepared Vitronectin-coated 6-well plates (~30 mins). The cells were cultured for 24 h in the presence of Advanced RPMI 1640 (Life Technologies, 61870-036) supplemented with B27 supplement (1%) (ThermoFisher Scientific, 17504044), 0.1 mM NEAA, 100 U/ml Penicillin, 0.1 mg/ml Streptomycin, 2 mM L-glutamine, Activin A (1 μg/ml) (In-house produced by Biochemistry Department, University of Cambridge), Chiron (3 μM) (CHIR99021, TOCRIS 4423/10) and Rho-associated, coiled-coil containing protein kinase (ROCK) inhibitor (Rocki: 10 μM); Y27632) (hereafter called induction medium, IM).
Transient cells induced in IM for 24 h were dissociated into single cells using 0.25% Trypsin-EDTA and seeded (400 cells/well) into Corning Clear Ultra-low attachment 96-well plates (Fisher Scientific 10023683). […]
hEOs cultured on ultra-low attachment 96-well plates were collected, washed in 1×PBS and fixed in 4% PFA for 3-4 hours at room temperature or 1% PFA overnight at 4° C. hEOs were embedded in OCT mounting medium (VWR-361603E) and incubated in dry ice for 30 min before sectioning the frozen samples. An antigen retrieval procedure was performed to remove the fluorescence reporter from W15-NANOS3-tdTomato hES cell line, where required. […]

Assay [2] has as its system hEOs. Nature of the assay: Self-organization of hES cells into 3D hEOs, static 96-well culture. The protocol: as §1, with “IM). […]” for “IM).”
The subject of assay [3] is niSTEMBRYOs. Nature of the assay: Contracting cardiomyocytes in niSTEMBRYOs.
Assay [4] has as its system hEOs. Kind of assay: Scaled static culture of hEOs in Aggrewell 400 plates. The protocol: (§2) 24 well Aggrewell™ 400 plates (StemCell Technologies 34411) were pre-treated with 500 μl/well anti-adherence medium and centrifuged at 1300×g for 5 mins. After aspirating the medium, the wells were rinsed with 2 ml warm basal medium. Then, the medium was replaced by 1 ml warm organisation medium (OM). The plate was incubated at 37° C. at 5% CO2 until the cells were ready for seeding. OM comprised of Essential 6 (E6) medium (Life Technologies, A1516401) supplemented with 0.25 μM CH and ROCKi (10 μM). Pre-induced cells were dissociated using 0.25% Trypsin-EDTA, and 480,000 cells were seeded into each well of an Aggrewell™ 400 Plate at the rate of 400 cells/microwell and were centrifuged at 300×g for 3 mins. The final volume of medium in each well was 2 ml. Cells were cultured in Aggrewell plates at 37° C. at 5% CO2 for 4 days. The OM (without ROCKi) was replaced every day. On day 5, hEOs were manually picked and transferred to bottles for rotary culture in a bioreactor. From Day 5, hEOs were cultured in OM supplemented with 1 μM SB431542 at hypoxic conditions (5% O2, 5% CO2 and without ROCKi). The hEOs were collected at different time points for further analysis.

Assay [5] concerns niSTEMBRYOs. Kind of assay: Red hemogenic zones in niSTEMBRYOs.
Assay [6] relates to hEOs. Kind of assay: Frequency of hEOs with red inclusions (haematopoiesis). The protocol:
as §2, with “On day 5, hEOs were manually picked and transferred to bottles for rotary culture in a bioreactor. From Day 5, hEOs were cultured in OM supplemented with 1 μM SB431542 at hypoxic conditions (5% O2, 5% CO2 and without ROCKi).” left out

For assay [7], the system named is niSTEMBRYOs. Nature of the assay: niSTEMBRYO static and kinetic culture: growth and morphology. As to conditions: kinetic culture with SB.
In assay [8] the test system is hEOs. Nature of the assay: Frequency of beating hEOs (periodic contractions). The protocol:
24 well Aggrewell™ 400 plates (StemCell Technologies 34411) were pre-treated with 500 μl/well anti-adherence medium and centrifuged at 1300×g for 5 mins. After aspirating the medium, the wells were rinsed with 2 ml warm basal medium. Then, the medium was replaced by 1 ml warm organisation medium (OM). The plate was incubated at 37° C. at 5% CO2 until the cells were ready for seeding. OM comprised of Essential 6 (E6) medium (Life Technologies, A1516401) supplemented with 0.25 μM CH and ROCKi (10 μM). Pre-induced cells were dissociated using 0.25% Trypsin-EDTA, and 480,000 cells were seeded into each well of an Aggrewell™ 400 Plate at the rate of 400 cells/microwell and were centrifuged at 300×g for 3 mins. The final volume of medium in each well was 2 ml. Cells were cultured in Aggrewell plates at 37° C. at 5% CO2 for 4 days. The OM (without ROCKi) was replaced every day. On day 5, hEOs were manually picked and transferred to bottles for rotary culture in a bioreactor. From Day 5, hEOs were cultured in OM supplemented with 1 μM SB431542 at hypoxic conditions (5% O2, 5% CO2 and without ROCKi). The hEOs were collected at different time points for further analysis. Medium containing human cord serum (HCS) (also known as ex-utero culture medium, EUCM) was used as described earlier^64. In brief, 25% human cord serum was mixed with 25% DMEM (Gibco 11880) (low glucose, no phenol red, no glutamine, no HEPES) and 50% rat serum. Glutamine and Penicillin-Streptomycin (50 units/ml penicillin) were added to the medium supplemented with 4 mg/ml glucose and HEPES (GIBCO 15630056, 11 mM) and 1 mM Sodium Pyruvate. Human cord serum was provided by the Cambridge Blood and Stem Cell Biobank, which is supported by the Cambridge NIHR Biomedical Research Centre, Wellcome Trust-MRC Stem Cell Institute, UK. Rat serum was heat-inactivated for 30 min at 56° C. and filtered through 0.22 μm PVDF filter, whereas human serum was heat inactivated at 55° C. for 45 minutes and sterilized through filtration by 0.22 μm filters. […]

The test system of assay [9] is hEOs. Nature of the assay: Kinetic rotary culture of hEOs: growth and morphology. The protocol: as §2, with “analysis. Medium containing human cord serum (HCS) (also known as ex-utero culture medium, EUCM) was used as described earlier^64. […]” for “analysis.”
The test system of assay [10] is niSTEMBRYOs. Nature of the assay: Lineage marker expression and hindgut formation in niSTEMBRYOs.

For `c1ccc2c(-c3cnn4cc(-c5ccc(N6CCNCC6)cc5)cnc34)ccnc2c1` [LDN193189], the “effect of BMP inhibition on specification of hPGCLCs” value in [1] (inhibitor present on D1, D2 or D3) is “affected the specification of hPGCLCs when present on D1 but not on D2 or D3”.
Take `Cc1c[nH]c(-c2cnc(NCCNc3ccc(C#N)cn3)nc2-c2ccc(Cl)cc2Cl)n1` [CH, CHIR99021]: in assay [2] (0.25 μM CH, after two days, 1620/1800, N=10 experiments), the “aggregates elongated along the longitudinal axis” value was “more than 90%”. In addition, the “self-organization of aggregates into 3D elongated structures” value in assay [2] (CH 0.25 μM, 0.5 μM and 1.0 μM) is recorded as “sufficient to promote self-organization into 3D elongated structures”. For the same molecule, the periodic contractions result in assay [3] (niSTEMBRYOs cultured with HCS or with CH alone) is listed as “not evident”. Also, in assay [1] (CH 0.25 μM, from D2 until D8, without exogenous BMP2/4), the “elongation of hEOs and hPGCLC specification (NANOS3-tdTomato reporter)” value is “both the elongation of hEOs and the specification of hPGCLCs”. Besides, in assay [1] (high concentration of CH (1.0 μM), D3 hEOs), the “detection of hPGCLCs” value was “No hPGCLCs were detected”. In addition, the “elongation of the aggregates” value in assay [4] (four days in the presence of CH, by day 4, 1845/3100, N=4 experiments) is recorded as ~ 60%. Moreover, in [5] (aggregates cultured in the presence of CH or HCS alone), the “appearance of red hemogenic zones” value was “did not appear”.
On to `NC(=O)c1ccc(-c2nc(-c3ccc4c(c3)OCO4)c(-c3ccccn3)[nH]2)cc1` [SB43, SB431542], for which, in assay [6] (SB in rotary cultures, by day 15), the “hEOs containing large internal red zones” value is ~ 14%. In assay [6] (SB included in the 4D static culture), the red inclusion phenotype result is recorded as “entirely lost”. Further, the “niSTEMBRYOs with periodic and highly localised contractions” value in assay [3] (D8, kinetic culture with SB) was ~ 72%; in [3] (after 7 days, kinetic culture with SB) it was ~ 10%. For the same molecule, the “appearance of contracting cardiomyocytes” value in [3] (SB from D1 (SB early) vs SB from D4 (SB late)) is given as “not affected”. Besides, the figures for the aggregate size entry in [7] (after 14 days) and in assay [7] (after four days) were “quadrupling” and “doubling in size”, respectively. The “hEOs with periodic and highly localised contractions” value in assay [8] (D7, kinetic culture with SB) is recorded as ~ 10%; in assay [8] (D8, kinetic culture with SB), around 70%. The “decrease in the number of beating hEOs” value in [8] (SB in static and kinetic cultures vs SB only during kinetic cultures, D8, p<0.0001) is given as 40%. For the same molecule, the “increase in the frequency of elongated hEOs” value in assay [4] (SB in the initial four-day static cultures, D4, p=0.0016) came out at 15%. In addition, the “haematopoiesis in niSTEMBRYOs” value in [5] (SB43 from day 4 onwards (SB late)) is on record as “promoted haematopoiesis”. The red hemogenic phenotype entry in [5] (SB from D1 (SB early)) is recorded as “no red hemogenic phenotype was observed”. Moreover, the “niSTEMBRYOs developing visible red hemogenic zones” value in [5] (SB in rotary cultures, from D14 onwards, N=196/1170, 5 experiments) is ~ 16%. The hEO size result in [9] (kinetic culture with 1 μM SB43, with or without 10% Matrigel, after four days) is recorded as “doubled in size”. Further, the “hEO size relative to static culture on D4” value in assay [9] (kinetic culture with SB, after 22 days) is reported as “quadrupled in size”. In assay [10] (SB from D1 (SB early)), the “hindgut (SOX17, SOX2 tubular structure)” value is “appearance of hindgut”. For the same molecule, the “expression of mesodermal marker TBXT” value in [10] (SB from D1 (SB early), by D4) was “downregulated”. For the same molecule, the hindgut entry in assay [10] (SB from D4 (SB late)) is on record as “absent”.
